According to patent US8765779B2, “Tricyclic derivatives and their pharmaceutical use and compositions” (Cephalon, Inc., priority 2009, dated 2014):
Where two headings read alike, the source gives them in different places. Values belong to the compound of their own block, whether it stands above or below them.

Assays:
[1] = test system: rats; settings: rat model of tonic, persistent pain; cited from earlier work
[2] = biological target: T1, human 5-HT6 receptor (Homo sapiens, UniProt P50406); experiment: Human 5-HT6 Receptor Binding Assay ([3H]LSD displacement, scintillation beads); settings: membranes of CHO-K1 cells with recombinant human 5-HT6, 4 nM [3H]LSD, read-out: h5-HT6 (Ki)
T1 construct: host or cells: CHO-K1 cells, stably transfected; membranes prepared in house

[3] = test system: rats; settings: compared to an untreated control group; cited from earlier work

T1 sequence (P50406 whole entry): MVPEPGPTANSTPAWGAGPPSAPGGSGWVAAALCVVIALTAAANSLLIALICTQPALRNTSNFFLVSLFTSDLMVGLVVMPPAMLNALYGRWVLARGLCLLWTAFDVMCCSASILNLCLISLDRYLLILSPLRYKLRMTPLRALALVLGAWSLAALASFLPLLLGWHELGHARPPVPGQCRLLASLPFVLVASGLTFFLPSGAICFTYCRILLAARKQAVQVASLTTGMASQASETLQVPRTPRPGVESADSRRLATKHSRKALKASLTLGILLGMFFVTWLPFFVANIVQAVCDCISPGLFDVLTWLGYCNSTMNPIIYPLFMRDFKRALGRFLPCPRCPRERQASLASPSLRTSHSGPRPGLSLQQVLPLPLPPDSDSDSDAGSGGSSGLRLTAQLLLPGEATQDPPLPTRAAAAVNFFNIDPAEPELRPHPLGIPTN

SMILES: COc1ccc(NS(=O)(=O)c2sc3ccc(Cl)cc3c2C)cc1N1CCNCC1 [SB-271046]
- antinociceptive effect [1]: short-lived, antinociceptive effect

SMILES: CC(C)Oc1cccc(S(=O)(=O)c2ccc3c(c2)C2(C)CCNCC2O3)c1 (centres unmarked) [Example 98]
- melting point: 162 to 164 °C
- Ki ([2]; Table 1, class symbols): < 500 nM

SMILES: COc1cc(OC(C)C)cc(S(=O)(=O)c2ccc3c4c(oc3c2)CNCC4(C)C)c1 [Example 85]
- melting point: 246 to 247 °C
- Ki ([2]; Table 1, class symbols): < 500 nM

SMILES: COc1ccc(Cl)cc1S(=O)(=O)c1ccc2c3c(oc2c1)CNCC3 [Example 80]
- melting point: 258 to 259 °C
- Ki ([2]; Table 1, class symbols): < 500 nM

SMILES: CC12CCNCC1Oc1ccc(S(=O)(=O)c3cccc(Cl)c3Cl)cc12 (centres unmarked) [Example 106]
- melting point: 244 to 246 °C
- Ki ([2]; Table 1, class symbols): < 500 nM

SMILES: CC12CCNCC1Oc1ccc(S(=O)(=O)c3cccc(Cl)c3)cc12 (centres unmarked) [Example 100]
- melting point: 160 to 162 °C
- Ki ([2]; Table 1, class symbols): < 500 nM

SMILES: O=S(=O)(c1cccc(F)c1)c1ccc2c3c(oc2c1)C1(CCOCC1F)NCC3 (single isomer, unassigned) [Example 55, 3′-Fluoro-7-[(3-fluorophenyl)sulfonyl]-2′,3,3′,4,5′,6′-hexahydro-2H-spiro[1-benzofuro[2,3-c]pyridine-1,4′-pyran]]
- melting point: 251 to 260 °C
- Ki ([2]; Table 1, class symbols): < 500 nM

SMILES: CC12CCNCC1Oc1ccc(S(=O)(=O)c3ccccc3F)cc12 (centres unmarked) [Example 99, 6-[(2-fluorophenyl)sulfonyl]-4a-methyl-1,2,3,4,4a,9a-hexahydro[1]benzofuro[2,3-c]pyridine]
- melting point: 260 to 262 °C
- Ki ([2]; Table 1, class symbols): < 500 nM
- Ki ([2]; specific data): 243 nM

SMILES: O=S(=O)(c1cc(F)cc(F)c1)c1ccc2c3c(oc2c1)C1(CCCOC1)NCC3 (racemic) [Example 24, 7-[(3,5-difluorophenyl)sulfonyl]-3,4,5′,6′-tetrahydro-2H,4′H-spiro[1-benzofuro[2,3-c]pyridine-1,3′-pyran]]
- melting point: 85 to 95 °C
- Ki ([2]; Table 1, class symbols): < 500 nM

SMILES: CC12CCNCC1Oc1ccc(S(=O)(=O)c3cccc(Cl)c3Cl)cc12 (centres unmarked) [Example 101]
- melting point: 210 to 212 °C
- Ki ([2]; Table 1, class symbols): < 500 nM

SMILES: CC12CCNCC1Oc1ccc(S(=O)(=O)c3cccc(Cl)c3)cc12 (centres unmarked) [Example 104]
- melting point: 216 to 218 °C
- Ki ([2]; Table 1, class symbols): > 1000 nM

SMILES: CC(=O)Nc1ccc(S(=O)(=O)c2ccc3c(c2)C2(C)CCNCC2O3)cc1 (centres unmarked) [Example 96]
- melting point: 212 to 214 °C
- Ki ([2]; Table 1, class symbols): > 1000 nM

SMILES: CN1CCN(c2cccc3c(S(=O)(=O)c4ccccc4)c[nH]c23)CC1 [RO 4368554]
- non-REM (NREM) sleep [3]: increase in non-REM (non-rapid eye movement or NREM) sleep

Now from value to compound:

- melting point: 188 to 189 °C
- Ki ([2]; Table 1, class symbols): < 500 nM
SMILES: O=S(=O)(c1ccc2c(c1)OC1CNCCC21)c1nc2ccccc2[nH]1 (centres unmarked) [Example 69]

- melting point: 200 to 201 °C
- Ki ([2]; Table 1, class symbols): > 1000 nM
SMILES: Cc1ccc2nsnc2c1S(=O)(=O)c1ccc2c(c1)OC1CNCCC21 (centres unmarked) [Example 70]

- melting point: 153 to 155 °C
- Ki ([2]; Table 1, class symbols): < 500 nM
SMILES: O=S(=O)(c1cccc(F)c1)c1ccc2c3c(oc2c1)C1(COC1)NCC3 [Example 48, 7-[(3-fluorophenyl)sulfonyl]-3,4-dihydro-2H-spiro[1-benzofuro[2,3-c]pyridine-1,3′-oxetane]]

- melting point: 164 to 165 °C
- Ki ([2]; Table 1, class symbols): < 500 nM
SMILES: Cn1ccc2c(S(=O)(=O)c3ccc4c(c3)OC3CNCCC43)cccc21 (centres unmarked) [Example 68]

- melting point: 242 to 243 °C
- Ki ([2]; Table 1, class symbols): < 500 nM
SMILES: O=S(=O)(c1ccc2c3c(oc2c1)CNCC3)c1cccc2nsnc12 [Example 83]

- melting point: 197 to 204 °C
- Ki ([2]; Table 1, class symbols): < 500 nM
SMILES: COc1cc2c(cc1S(=O)(=O)c1cccc(F)c1)C1CCNCC1O2 (centres unmarked) [Example 89]

- melting point: 279 to 281 °C
- Ki ([2]; Table 1, class symbols): < 500 nM
SMILES: O=S(=O)(c1cccc(O)c1)c1ccc2c3c(oc2c1)CNCC3 [Example 627, 3-(1,2,3,4-Tetrahydro-benzo[4,5]furo[2,3-c]pyridine-7-sulfonyl)-phenol]

- melting point: 228 to 229 °C
- Ki ([2]; Table 1, class symbols): < 500 nM
SMILES: CC(=O)Nc1cccc(S(=O)(=O)c2ccc3c(c2)OC2CNCCC32)c1 (centres unmarked) [Example 73]
